Measured values taken from patent US20260200919A1, “SUBSTITUTED AMINOPYRIDINE COMPOUNDS AND METHODS OF TREATING DISEASE USING SAME” (Atavistik Bio, Inc., priority 2023, published 2026).

Key:
[1] = target: T1, human recombinant kinase full-length AKT1 E17K (Homo sapiens, UniProt P31749, E17K); experiment: AKT1 E17K kinase assay (TR-FRET, Lance); type: biochemical; details: 0.6 nM AKT1 E17K, 50 nM Ulight-CREBtide, either 50 μM ATP or 2 mM ATP (not specified which), 60 min at RT
T1 construct: Purified human recombinant kinase full-length AKT1 E17K was expressed in insect cells; made in house; host or cells: insect cells
Protocol: AKT1 E17K kinase assay: Inhibitory effects of compounds on AKT1 E17K were undertaken in a 10-pt dose response kinase activity assay measuring phospho-peptide product formation based on TR-FRET signal as described in the following paragraph.
(§1) Purified human recombinant kinase full-length AKT1 E17K was expressed in insect cells and activated in vitro by PDPK1. Ulight™-CREBtide (PerkinElmer, catalog number TRF0107) was used as the peptide substrate. The reaction buffer consisted of 50 mM HEPES pH 7.5, 10 mM MgCl2, 0.01% Triton X-100, 0.01% BSA, 2 mM DTT, 0.6 nM AKT1 E17K, 50 nM. Ulight™ CREBtide and either 50 μM ATP or 2 mM ATP. The compound solution was prepared as 10 mM DMSO stock. […] Final DMSO concentration in the assay was 1%. […] The reaction was stopped after 60 min of incubation at RT by the addition of 10 μL of Detection Mix (PerkinElmer, #CR97-100) consisting of Europium-anti-phospho-CREB (Ser133) (Perkin Elmer, catalog numberTRF0200). Incubation with the detection mix for a further 60 min allowed binding of antibody to the phospho-Ulight™ CREBtide. The fluorescence emissions at 620 nm and 665 nm after excitation at […] was measured using Envision reader. The ratio of the emissions at 665 nm and at 620 nm provided the measure for the amount of phosphorylated CREBtide product of AKT1 E17K kinase activity.

[2] = target: T2, human recombinant kinase full-length wildtype AKT1 (Homo sapiens, UniProt P31749); experiment: AKT1 kinase assay (wildtype, TR-FRET, Lance); type: biochemical; details: 0.6 nM wildtype AKT1, 50 nM Ulight-CREBtide, either 50 μM ATP or 2 mM ATP (not specified which), 60 min at RT
T2 construct: Purified human recombinant kinase full-length wildtype AKT1 was expressed in insect cells; made in house; host or cells: insect cells
Protocol: AKT1 kinase assay: Inhibitory effects of compounds on wildtype AKT1 were undertaken in a 10-pt dose response kinase activity assay measuring phospho-peptide product formation based on TR-FRET signal as described in the following paragraph.
as §1, with “full-length wildtype” for “full-length”, “AKT1” for “AKT1 E17K”, “Ulight™—CREBtide” for “Ulight™-CREBtide”, “AKT1,” for “AKT1 E17K,”, “nM Ulight™-CREBtide” for “nM. Ulight™ CREBtide”

T1 sequence (P31749 whole entry E17K): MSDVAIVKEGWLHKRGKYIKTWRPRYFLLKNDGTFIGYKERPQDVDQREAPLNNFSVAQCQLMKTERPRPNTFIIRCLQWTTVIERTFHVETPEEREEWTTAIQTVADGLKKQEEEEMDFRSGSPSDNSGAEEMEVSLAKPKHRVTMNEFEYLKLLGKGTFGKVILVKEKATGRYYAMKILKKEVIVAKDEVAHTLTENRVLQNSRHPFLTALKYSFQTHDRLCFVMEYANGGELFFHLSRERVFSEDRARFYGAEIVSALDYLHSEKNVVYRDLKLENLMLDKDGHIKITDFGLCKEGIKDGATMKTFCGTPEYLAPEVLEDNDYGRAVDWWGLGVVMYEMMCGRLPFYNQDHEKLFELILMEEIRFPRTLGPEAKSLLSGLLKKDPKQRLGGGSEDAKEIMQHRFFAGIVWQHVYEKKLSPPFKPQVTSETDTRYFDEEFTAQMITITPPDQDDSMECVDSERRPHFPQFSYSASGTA
T2 sequence (P31749 whole entry): as the sequence (P31749 whole entry E17K) above, with K17E counted along it

IC50 [1] [nM] | IC50 [2] [nM] | Compound
50 to 200 | < 500 | C[C@H](c1ccc(C(=O)O)cc1)N1CC(c2ccc(-n3c(-c4cccnc4N)nc4ccc(-c5ccccc5)nc43)cc2)C1 (single isomer, unassigned) [Compound 125]
> 500 | < 500 | C[C@@H](c1ccc(C(=O)O)cc1)N1CC(c2ccc(-n3c(-c4cccnc4N)nc4ccc(-c5ccccc5)nc43)cc2)C1 (single isomer, unassigned) [Compound 126]
> 500 | < 500 | COC(=O)c1ccc([C@@H](C)N2CC(c3ccc(-n4c(-c5cccnc5N)nc5ccc(-c6ccccc6)nc54)cc3)C2)cc1 (single isomer, unassigned) [Compound 157]
> 500 | < 500 | COC(=O)c1ccc([C@H](C)N2CC(c3ccc(-n4c(-c5cccnc5N)nc5ccc(-c6ccccc6)nc54)cc3)C2)cc1 (single isomer, unassigned) [Compound 158]
200 to 500 | < 500 | Nc1ncccc1-c1nc2ccc(-c3ccccc3)nc2n1-c1ccc(CNC(=O)c2cccc(S(=O)(=O)O)c2F)cc1 [Compound 9, 3-((4-(2-(2-aminopyridin-3-yl)-5-phenyl-3H-imidazo[4,5-b]pyridin-3-yl)benzyl)carbamoyl)-2-fluorobenzenesulfonic acid]
< 50 | < 500 | Nc1ncccc1-c1nc2ccc(-c3ccccc3)nc2n1-c1ccc(CNC(=O)c2cc(F)cc(C(=O)O)c2)cc1 [Compound 21, 3-((4-(2-(2-aminopyridin-3-yl)-5-phenyl-3H-imidazo[4,5-b]pyridin-3-yl)benzyl)carbamoyl)-5-fluorobenzoic acid]
< 50 | < 500 | Nc1ncccc1-c1nc2ccc(-c3ccccc3)nc2n1-c1ccc(CNC(=O)c2cc(C(=O)O)ccc2F)cc1 [Compound 23, 3-((4-(2-(2-aminopyridin-3-yl)-5-phenyl-3H-imidazo[4,5-b]pyridin-3-yl)benzyl)carbamoyl)-4-fluorobenzoic acid]
50 to 200 | < 500 | Nc1ncccc1-c1nc2ccc(-c3ccccc3)nc2n1-c1ccc(CNC(=O)c2ccc(CC(=O)O)cc2)cc1 [Compound 30, 2-(4-((4-(2-(2-aminopyridin-3-yl)-5-phenyl-3H-imidazo[4,5-b]pyridin-3-yl)benzyl)carbamoyl)phenyl)acetic acid]
50 to 200 | < 500 | Nc1ncccc1-c1nc2ccc(-c3ccccc3)nc2n1-c1ccc(CNC(=O)c2cccc(CC(=O)O)c2)cc1 [Compound 32, 2-(3-((4-(2-(2-aminopyridin-3-yl)-5-phenyl-3H-imidazo[4,5-b]pyridin-3-yl)benzyl)carbamoyl)phenyl)acetic acid]
> 500 | < 500 | COC(=O)Cc1cccc(C(=O)NCc2ccc(-n3c(-c4cccnc4N)nc4ccc(-c5ccccc5)nc43)cc2)c1F [Compound 33, methyl 2-(3-((4-(2-(2-aminopyridin-3-yl)-5-phenyl-3H-imidazo[4,5-b]pyridin-3-yl)benzyl)carbamoyl)-2-fluorophenyl)acetate]
200 to 500 | < 500 | Nc1ncccc1-c1nc2ccc(-c3ccccc3)nc2n1-c1ccc(CNC(=O)c2cccc(CC(=O)O)c2F)cc1 [Compound 34, 2-(3-((4-(2-(2-aminopyridin-3-yl)-5-phenyl-3H-imidazo[4,5-b]pyridin-3-yl)benzyl)carbamoyl)-2-fluorophenyl)acetic acid]
< 50 | < 500 | CC(C(=O)O)c1ccc(C(=O)NCc2ccc(-n3c(-c4cccnc4N)nc4ccc(-c5ccccc5)nc43)cc2)cc1 (stereo not drawn) [Compound 35, 2-(4-((4-(2-(2-aminopyridin-3-yl)-5-phenyl-3H-imidazo[4,5-b]pyridin-3-yl)benzyl)carbamoyl)phenyl) propanoic acid]
200 to 500 | < 500 | CC(C(=O)O)c1cccc(C(=O)NCc2ccc(-n3c(-c4cccnc4N)nc4ccc(-c5ccccc5)nc43)cc2)c1F (stereo not drawn) [Compound 37, 2-(3-((4-(2-(2-aminopyridin-3-yl)-5-phenyl-3H-imidazo[4,5-b]pyridin-3-yl)benzyl)carbamoyl)-2-fluorophenyl) propanoic acid]
> 500 | > 500 | CC(C(=O)O)c1cccc(C(=O)NCc2ccc(-n3c(-c4cccnc4N)nc4ccc(-c5ccccc5)nc43)cc2)n1 (stereo not drawn) [Compound 38, 2-(6-((4-(2-(2-aminopyridin-3-yl)-5-phenyl-3H-imidazo[4,5-b]pyridin-3-yl)benzyl)carbamoyl)pyridin-2-yl) propanoic acid]
< 50 | < 500 | Nc1ncccc1-c1nc2ccc(-c3ccccc3)nc2n1-c1ccc(CNC(=O)c2ccc(CCC(=O)O)cc2)cc1 [Compound 40, 3-(4-((4-(2-(2-aminopyridin-3-yl)-5-phenyl-3H-imidazo[4,5-b]pyridin-3-yl)benzyl)carbamoyl)phenyl) propanoic acid]
50 to 200 | < 500 | Nc1ncccc1-c1nc2ccc(-c3ccccc3)nc2n1-c1ccc(CNC(=O)c2cccc(CCC(=O)O)c2)cc1 [Compound 42, 3-(3-((4-(2-(2-aminopyridin-3-yl)-5-phenyl-3H-imidazo[4,5-b]pyridin-3-yl)benzyl)carbamoyl)phenyl) propanoic acid]
> 500 | < 500 | NC(=O)Cc1cccc(C(=O)NCc2ccc(-n3c(-c4cccnc4N)nc4ccc(-c5ccccc5)nc43)cc2)c1 [Compound 43, 3-(2-amino-2-oxoethyl)-N-(4-(2-(2-aminopyridin-3-yl)-5-phenyl-3H-imidazo[4,5-b]pyridin-3-yl)benzyl)benzamide]
> 500 | < 500 | CCNC(=O)Cc1cccc(C(=O)NCc2ccc(-n3c(-c4cccnc4N)nc4ccc(-c5ccccc5)nc43)cc2)c1 [Compound 44, N-(4-(2-(2-aminopyridin-3-yl)-5-phenyl-3H-imidazo[4,5-b]pyridin-3-yl)benzyl)-3-(2-(ethylamino)-2-oxoethyl)benzamide]
> 500 | > 500 | Nc1ncccc1-c1nc2ccc(-c3ccccc3)nc2n1-c1ccc(CNC(=O)c2cccc(CC(=O)O)c2)nc1 [Compound 48, 2-(3-(((5-(2-(2-aminopyridin-3-yl)-5-phenyl-3H-imidazo[4,5-b]pyridin-3-yl)pyridin-2-yl)methyl)carbamoyl)phenyl)acetic acid]
> 500 | > 500 | Nc1ncccc1-c1nc2ccc(-c3ccccc3)nc2n1-c1ccc(CNC(=O)c2cccc(CC(=O)O)c2)cn1 [Compound 49, 2-(3-(((6-(2-(2-aminopyridin-3-yl)-5-phenyl-3H-imidazo[4,5-b]pyridin-3-yl)pyridin-3-yl)methyl)carbamoyl)phenyl)acetic acid]
> 500 | > 500 | Nc1ncccc1-c1nc2ccc(-c3ccccc3)nc2n1-c1ccc(CNC(=O)c2cccc(CC(=O)O)c2)c(F)c1 [Compound 50, 2-(3-((4-(2-(2-aminopyridin-3-yl)-5-phenyl-3H-imidazo[4,5-b]pyridin-3-yl)-2-fluorobenzyl)carbamoyl)phenyl)acetic acid]
50 to 200 | < 500 | Nc1ncccc1-c1nc2ccc(-c3ccccc3)cc2n1-c1ccc(CNC(=O)c2cccc(CC(=O)O)c2)cc1 [Compound 51, 2-(3-((4-(2-(2-aminopyridin-3-yl)-6-phenyl-1H-benzo[d]imidazol-1-yl)benzyl)carbamoyl)phenyl)acetic acid]
> 500 | > 500 | Nc1ncccc1-c1nc2ccc(-c3ccccc3)nc2n1-c1ccc(C(=O)NCc2cccc(CC(=O)O)c2)cc1 [Compound 52, 2-(3-((4-(2-(2-aminopyridin-3-yl)-5-phenyl-3H-imidazo[4,5-b]pyridin-3-yl)benzamido)methyl)phenyl)acetic acid]
< 50 | < 500 | Nc1ncccc1-c1nc2ccc(-c3ccccc3)nc2n1-c1ccc(NC(=O)c2ccc(C(=O)O)cc2)cc1 [Compound 53]
